This note sets out measurements from ChEMBL document CHEMBL1127354, “Nonpeptidic inhibitors of human leukocyte elastase. 3. Design, synthesis, X-ray crystallographic analysis, and structure-activity relationships for a series of orally active 3-amino-6-phenylpyridin-2-one trifluoromethyl ketones” (J Med Chem, 1994).

What is called logP is a log measure of how a compound divides between an organic and an aqueous phase. Read a low logP as lower lipophilicity. In general, Cmax refers to the peak of the concentration-time curve. For orientation: Tmax means the time from dosing to the highest level. By bioavailability is commonly meant dose-corrected exposure relative to a reference, in per cent. A low value points to poor availability. The half-life is the time needed for the level to fall by half in the phase considered.

A short description of data set [1]: physchem. As to conditions: octanol/water.
Data set [2] in a line: Partition coefficient (logP). The class given is physicochemical. As to conditions: octanol/water.
A short description of data set [3]: Maximum concentration of unchanged drug in plasma recorded in the period 0-6 hr of postdose in hamster at 40 mg/kg oral dose. In kind it is ADME, organism-based. Also noted: dose 40 mg/kg, route oral. The following applies: cricetinae.
Data set [4] can be described thus: Time taken to reach maximum drug concentration in plasma of hamster at 40 mg/kg oral dose. In kind it is ADME, organism-based. Also on record: dose 40 mg/kg, route oral. The following applies: cricetinae.
Data set [5] is described as follows: Oral bioavailability was measured at concentration of 40 mg/kg oral dose to hamster. The class given is ADME, organism-based, Cricetulus griseus. As to conditions: chinese hamster, in vivo.
The nature of data set [6]: Time taken to reach half of the concentration in blood plasma of hamster at 40 mg/kg oral dose. The class given is ADME, organism-based. Also on record: dose 40 mg/kg, route oral. As to conditions: cricetinae.
Data set [7] is described as follows: Maximum concentration of unchanged drug in plasma recorded in the period 0-6 hr of postdose in anesthetized rat at 60 mg/kg oral dose. In kind it is ADME, organism-based. Also on record: dose 60 mg/kg, route oral.
A short description of data set [8]: Time taken to reach maximum drug concentration in plasma of anesthetized rat at 60 mg/kg oral dose. The class given is ADME, organism-based. Also on record: dose 60 mg/kg, route oral.
The nature of data set [9]: Oral bioavailability was measured at concentration of 60 mg/kg oral dose. In kind it is ADME, organism-based. The following applies: eutheria, in vivo.
A short description of data set [10]: Maximum concentration of unchanged drug in plasma recorded in the period 0-6 hr of postdose in anesthetized rat at 25 mg/kg oral dose. In kind it is ADME, organism-based. Also noted: dose 25 mg/kg, route oral.
Data set [11] can be described thus: Time taken to reach maximum drug concentration in plasma of anesthetized rat at 25 mg/kg oral dose. In kind it is ADME, organism-based. Also noted: dose 25 mg/kg, route oral.
Data set [12] is described as follows: Oral bioavailability was measured at concentration of 25 mg/kg oral dose. The class given is ADME, organism-based. The following applies: eutheria, in vivo.
Data set [13] is described as follows: Time taken to reach half of the concentration in blood plasma of anesthetized rat at 25 mg/kg oral dose. Also noted: dose 25 mg/kg, route oral. In kind it is ADME, organism-based.
Data set [14] is described as follows: Maximum concentration of unchanged drug in plasma recorded in the period 0-6 hr of postdose to hamster at 40 mg/kg oral dose. The class given is ADME, organism-based. Also on record: dose 40 mg/kg, route oral. As to conditions: cricetinae.
A short description of data set [15]: Time taken to reach maximum drug concentration in plasma of dog at 5 mg/kg oral dose. The class given is ADME, organism-based, Canis lupus familiaris. Also on record: dose 5 mg/kg, route oral.
Data set [16] is described as follows: Oral bioavailability was measured at concentration of 40 mg/kg oral dose. As to conditions: eutheria, in vivo. The class given is ADME, organism-based.
Data set [17] is described as follows: Oral bioavailability was measured at concentration of 5 mg/kg oral dose in dog. In kind it is ADME, organism-based, Canis lupus familiaris. The following applies: in vivo.
Data set [18] can be described thus: Time taken to reach half of the concentration in blood plasma of dog at 5 mg/kg oral dose. Also noted: dose 5 mg/kg, route oral. In kind it is ADME, organism-based, Canis lupus familiaris.
Data set [19] can be described thus: Maximum concentration of unchanged drug in plasma recorded in the period 0-6 hr of postdose in dog at 5 mg/kg oral dose. The class given is ADME, organism-based, Canis lupus familiaris. Also on record: dose 5 mg/kg, route oral.

In turn, `CC(C)C(NC(=O)Cn1c(-c2ccccc2)ccc(NC(=O)OCc2ccccn2)c1=O)C(=O)C(F)(F)F` (centres undefined) returned a logP in [1] of 1.91.

As for `CCNc1ccc(-c2ccccc2)n(CC(=O)NC(C(=O)C(F)(F)F)C(C)C)c1=O` (centres undefined), the logP in data set [1] was 2.37. On the same count and under the same terms, with `CC(C)C(NC(=O)Cn1c(-c2ccccc2)ccc(NS(N)(=O)=O)c1=O)C(=O)C(F)(F)F` (centres undefined) the figure was 1.17. On to `CC(C)C(NC(=O)Cn1c(-c2ccccc2)ccc(NS(=O)(=O)Cc2ccccc2)c1=O)C(=O)C(F)(F)F` (centres undefined), for which, in data set [2], the logP entry was “Not detected”. `Cc1cc(COC(=O)Nc2ccc(-c3ccccc3)n(CC(=O)NC(C(=O)C(F)(F)F)C(C)C)c2=O)cc(C)n1` (centres undefined) came in with a logP in data set [1] of 2.38. `CC(C)C(NC(=O)Cn1c(-c2ccccc2)ccc(NC=O)c1=O)C(=O)C(F)(F)F` (centres undefined): the logP in data set [1] worked out at 1.84. Still for that read-out and setting: the figure for `CC(C)C(NC(=O)Cn1c(-c2ccccc2)ccc(NC(=O)C(F)(F)F)c1=O)C(=O)C(F)(F)F` (centres undefined) is 3.86.

`CC(C)C(NC(=O)Cn1c(-c2ccccc2)ccc(NC(=O)Cc2ccc(C(=O)O)cc2)c1=O)C(=O)C(F)(F)F` (centres undefined) gave a logP in data set [1] of 0.35. Same read-out and setting: the figure for `CC(C)C(NC(=O)Cn1c(-c2ccccc2)ccc(NS(=O)(=O)NCc2ccccc2)c1=O)C(=O)C(F)(F)F` (centres undefined) is 2.57. Same read-out and setting: the figure for `CC(C)C(NC(=O)Cn1c(-c2ccccc2)ccc(NC(=O)NCc2ccccn2)c1=O)C(=O)C(F)(F)F` (centres undefined) is 2.15. `CC(=O)Nc1ccc(-c2ccccc2)n(CC(=O)NC(C(=O)C(F)(F)F)C(C)C)c1=O` (centres undefined): the concentration in data set [3] peaked (Cmax) at 2780 ng/mL. Also, the Tmax in [4] amounted to 15 min. The bioavailability in data set [5] was 35%. This compound gave a half-life in data set [6] of 114 min. Besides, in data set [1], the logP is 1.78. In data set [1], `CC(C)C(NC(=O)Cn1c(-c2ccccc2)ccc(NC(=O)NCc2cccnc2)c1=O)C(=O)C(F)(F)F` (centres undefined) displayed a logP of 2.84. On the same count and under the same terms, with `CC(C)C(NC(=O)Cn1c(-c2ccccc2)ccc(NC(=O)NCc2cc[n+]([O-])cc2)c1=O)C(=O)C(F)(F)F` (centres undefined) the figure was 1.13. `CC(C)C(NC(=O)Cn1c(-c2ccccc2)ccc(NC(=O)CN2CCOCC2)c1=O)C(=O)C(F)(F)F` (centres undefined) returned a logP in data set [1] of 2. On to `CC(C)C(NC(=O)Cn1c(-c2ccccc2)ccc(NC(=O)NCc2ccncc2)c1=O)C(=O)C(F)(F)F` (centres undefined), for which the Cmax in data set [7] is 75 ng/mL. Also, the Tmax in [8] is 3 h. In data set [9], this compound yielded a bioavailability of 2%. This compound also registered a logP in [1] of 2.16. In data set [1], `CC(C)C(NC(=O)Cn1c(-c2ccccc2)ccc(N)c1=O)C(=O)C(F)(F)F` (centres undefined) had a logP of 1.74. The same measure, in the same setting: the figure for `CC(C)C(NC(=O)Cn1c(-c2ccccc2)ccc(NC(=O)NCc2ccc[n+]([O-])c2)c1=O)C(=O)C(F)(F)F` (centres undefined) is 1.48. For `CC(=O)Nc1ccc(S(=O)(=O)Nc2ccc(-c3ccccc3)n(CC(=O)NC(C(=O)C(F)(F)F)C(C)C)c2=O)cc1` (centres undefined), in [2], the logP entry was “Not detected”. `CC(C)C(NC(=O)Cn1c(-c2ccccc2)ccc(NC(=O)OCc2ccccc2)c1=O)C(=O)C(F)(F)F` (centres undefined) showed a Cmax in data set [10] of 1890 ng/mL. In addition, in [11], the Tmax was 1.4 h. The compound also gave a bioavailability in data set [12] of 59%. This compound gave a half-life in data set [13] of 180 min. As for `CC(C)C(NC(=O)Cn1c(-c2ccccc2)ccc(NC(=O)OCc2cccc(C(=O)O)c2)c1=O)C(=O)C(F)(F)F` (centres undefined), the logP result in [2] is on record as “Not detected”. Regarding `CC(C)C(NC(=O)Cn1c(-c2ccccc2)ccc(NS(C)(=O)=O)c1=O)C(=O)C(F)(F)F` (centres undefined), in data set [1], the logP stood at 1.77.

`CC(C)C(NC(=O)Cn1c(-c2ccccc2)ccc(NC(=O)OCc2ccc(C(=O)O)cc2)c1=O)C(=O)C(F)(F)F` (centres undefined): in [1], the logP was 0.84. In data set [1], `COc1ccc(S(=O)(=O)Nc2ccc(-c3ccccc3)n(CC(=O)NC(C(=O)C(F)(F)F)C(C)C)c2=O)cc1` (centres undefined) registered a logP of 2.5. Same read-out and setting: with `CC(C)C(NC(=O)Cn1c(-c2ccccc2)ccc(NC(=O)Cc2ccccc2C(=O)O)c1=O)C(=O)C(F)(F)F` (centres undefined) the figure was 1.14. For `CC(C)C(NC(=O)Cn1c(-c2ccccc2)ccc(NC(=O)OCc2ccncc2)c1=O)C(=O)C(F)(F)F` (centres undefined), the Cmax in [14] is 2770 ng/mL; in data set [19] it was 3150 ng/mL. Also, the Tmax in data set [15] stood at 1 h; in [4], 15 min. Further, the bioavailability in data set [16] was 45%; in data set [17], about 100%. Besides, the half-life is 48 min in [18] and 78 min in data set [6]. Moreover, in data set [1], the logP amounted to 2.41. With `CC(C)C(NC(=O)Cn1c(-c2ccccc2)ccc(NS(=O)(=O)c2ccccc2)c1=O)C(=O)C(F)(F)F` (centres undefined), the logP in data set [1] was found to be 2.53.
